Test results published in patent US8877745B2, “CCR2 receptor antagonists, method for producing the same, and use thereof as medicaments” (Boehringer Ingelheim International GmbH, priority 2010, dated 2014).
pKi: −log10 of the molar value.

Target: T1, CCR2 (Homo sapiens, UniProt P41597)
T1 construct: Membranes were prepared from THP-1 cells; endogenous in cells; host or cells: THP-1 (human acute monocytic leukaemia cells), membrane preparation
Assay: CCR2 receptor membrane binding assay ([125I]MCP-1, THP-1 cell membranes, SPA beads)
Settings: THP-1 membranes, [125I]MCP-1, bound radioactivity determined after 8 h; read-out: hKi
Method in brief: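 SPA competition binding using THP-1 membranes on WGA-PVT beads in 25 mM HEPES pH 7.2, 5 mM MgCl2, 0.5 mM CaCl2, 0.2% BSA, 1% DMSO final. [125I]MCP-1 (ca. 25000 cpm) as tracer; bound radioactivity counted after 8 h. Ki by iterative mass-action fitting.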

T1 sequence (P41597 whole entry): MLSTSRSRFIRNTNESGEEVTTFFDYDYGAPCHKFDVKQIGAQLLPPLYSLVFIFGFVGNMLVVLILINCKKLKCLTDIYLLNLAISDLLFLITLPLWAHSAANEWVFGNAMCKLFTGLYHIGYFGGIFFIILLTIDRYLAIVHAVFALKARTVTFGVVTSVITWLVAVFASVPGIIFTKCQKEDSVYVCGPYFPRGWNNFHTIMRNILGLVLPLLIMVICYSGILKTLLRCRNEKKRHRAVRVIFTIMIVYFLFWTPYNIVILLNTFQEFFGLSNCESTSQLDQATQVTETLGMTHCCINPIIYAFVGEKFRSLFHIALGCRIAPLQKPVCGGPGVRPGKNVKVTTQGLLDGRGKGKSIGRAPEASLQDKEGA

| pKi | SMILES |
| --- | --- |
| 7.31 | COC1COCCC1NC1CCN(C(=O)c2ncnc(N3CCc4c(Cl)cc(Cl)cc4C3)c2C)CC1 (centres unmarked) [Example 39] |
| 5.44 | COC1COCCC1NC1CCN(C(=O)c2ncnc(N3CCCC(c4ccc(F)cc4)C3)c2C)CC1 (centres unmarked) [Example 32] |
| 9.15 | CO[C@H]1COCC[C@H]1NC1CCN(C(=O)c2nc(C3CC3)nc(N3CCc4ccc(C(F)(F)F)cc4C3)c2C)CC1 [Example 69q] |
| 6.18 | CCN(CC)C1CCN(C(=O)c2ncnc(N3CCc4ccc(C(F)(F)F)cc4C3)c2C)C1 (centres unmarked) [Example 75] |
| 5.68 | Cc1c(C(=O)N2CCN(C(C)C)CC2)ncnc1N1CCc2ccc(C(F)(F)F)cc2C1 [Example 71] |
| 5.90 | Cc1c(C(=O)N2CCC(C(N)=O)(N3CCCCC3)CC2)ncnc1N1CCc2ccc(C(F)(F)F)cc2C1 [Example 78] |
| 7.80 | Cc1c(C(=O)N2CCC(N[C@@H]3CCOC[C@@H]3F)CC2)ncnc1N1CCc2ccc(C(F)(F)F)cc2C1 [Example 69m] |
| 5.77 | COC1COCCC1NC1CCN(C(=O)c2ncnc(N3CCCC(c4cccc(Cl)c4)C3)c2C)CC1 (centres unmarked) [Example 31] |
| 5.89 | Cc1c(C(=O)N2CCC(N3CCC(N(C)S(C)(=O)=O)CC3)CC2)ncnc1-n1ccc2cc(C(F)(F)F)ccc21 [Example 69g] |
| 6.20 | COC1COCCC1NC1CCN(C(=O)c2ncnc(N3CCc4ccccc4CC3)c2C)CC1 (centres unmarked) [Example 54] |
| 5.90 | COC1COCCC1NC1CCN(C(=O)c2ncnc(N3CCCC(c4ccc(C(F)(F)F)cc4)C3)c2C)CC1 (centres unmarked) [Example 36] |
